Test results: publication PMC3913610, “Antitumor Activity and Induction of TP53-Dependent Apoptosis toward Ovarian Clear Cell Adenocarcinoma by the Dual PI3K/mTOR Inhibitor DS-7423” (PLoS ONE, 2014)

Columns and labels:
[1] = tested on: TOV-21G xenografts; experiment: Tumor xenograft in nude mice; type: in vivo
Excerpt: (§1) Specific pathogen-free female nude mice (BALB/cAJcl-nu/nu), 6 weeks old, were purchased from CLEA Japan, Inc (Tokyo, Japan). Subcutaneous xenograft tumors in the mice were established by the injection of a 100-μL suspension containing 5×10^6 cells of the TOV-21, RMG-I, or ES-2 lines in PBS. Tumors were removed after exponential growth, cut into 3-mm pieces, and transplanted subcutaneously into other mice for RMG-I cells. DS-7423 was suspended in 0.5 w/v% Methyl Cellulose 400 solution (Wako Pure Chemical Industries, Ltd.) Oral daily administration of DS-7423 started 8–22 days later, following the injection of the cells (5–6×10^6 cells/0.1 mL). One week after tumor transplantation, mice were assigned randomly to one of the […] treatment regimens: (1) non-treated control, (2) DS-7423 (1.5 mg/kg), (3) DS-7423 (3 mg/kg), and (4) DS-7423 (6 mg/kg). Each treatment group consisted of five mice. DS-7423 was injected orally (p.o.) once a day. Tumor volumes (in mm^3) were calculated by the formula: ([major axis] × [minor axis]^2/2). After the treatment, the tumors were removed and analyzed by western blotting. Tumor weight (wet weight) was measured, and the average weight was calculated for each group.

[2] = tested on: RMG-I xenografts; experiment: Tumor xenograft in nude mice; type: in vivo
Excerpt: as §1

[3] = tested on: OVISE cells; experiment: Apoptosis by annexin-V FITC/PI staining; type: cell-based
Procedure: (§2) Cells (5×10^5) were cultured in 60-mm plates for 24 h before treatment with either DMSO (control), and 156 nM DS-7423, or 2,500 nM DS-7423 for 48 h. Cells were trypsinized, washed twice with PBS, and then analyzed after double staining with annexin-V fluorescein isothiocyanate (FITC) (Abcam, Cambridge, MA) and PI. The apoptotic cell population was analyzed using flow cytometry. All experiments were performed three times.
Cells were plated at approximately 30% confluence in 100-mm plates and incubated for 24 h before transfection with small interfering RNA (siRNA) duplexes at the concentrations indicated, using Lipofectamine […] RNAiMAX (Invitrogen, Carlsbad, CA) and Opti-MEM medium (Life Technologies, Grand Island, NY). The siRNAs specific for TP53 were purchased from Invitrogen. A negative control kit was used as a control (Invitrogen, Carlsbad, CA).

[4] = tested on: seven OSA lines; experiment: Proliferation (MTT/WST-8) assay, OSA panel; type: cell-based; conditions: four of seven OSA cell lines
Procedure: (§3) Assays of the suppression of cell proliferation were performed with the Cell Counting Kit-8 using the tetrazolium salt WST-8 [2-(2-methoxy-4-nitrophenyl)-3-(4-nitrophenyl)-5-(2,4-disulfophenyl)-2H-tetrazolium, monosodium salt] (Dojindo, Tokyo, Japan) for the methyl thiazolyl tetrazolium (MTT) assay. […] Proliferation was quantified by monitoring the changes in the absorbance at 450 nm, which were normalized relative to the absorbance of cell cultures treated with DMSO alone.

[5] = target: mTOR (Homo sapiens, UniProt P42345); experiment: mTOR inhibition; type: biochemical
[6] = target: PI3Kβ (Homo sapiens, UniProt P42338); experiment: PI3Kβ inhibition; type: biochemical
Sequence of PI3Kβ (P42338 whole entry): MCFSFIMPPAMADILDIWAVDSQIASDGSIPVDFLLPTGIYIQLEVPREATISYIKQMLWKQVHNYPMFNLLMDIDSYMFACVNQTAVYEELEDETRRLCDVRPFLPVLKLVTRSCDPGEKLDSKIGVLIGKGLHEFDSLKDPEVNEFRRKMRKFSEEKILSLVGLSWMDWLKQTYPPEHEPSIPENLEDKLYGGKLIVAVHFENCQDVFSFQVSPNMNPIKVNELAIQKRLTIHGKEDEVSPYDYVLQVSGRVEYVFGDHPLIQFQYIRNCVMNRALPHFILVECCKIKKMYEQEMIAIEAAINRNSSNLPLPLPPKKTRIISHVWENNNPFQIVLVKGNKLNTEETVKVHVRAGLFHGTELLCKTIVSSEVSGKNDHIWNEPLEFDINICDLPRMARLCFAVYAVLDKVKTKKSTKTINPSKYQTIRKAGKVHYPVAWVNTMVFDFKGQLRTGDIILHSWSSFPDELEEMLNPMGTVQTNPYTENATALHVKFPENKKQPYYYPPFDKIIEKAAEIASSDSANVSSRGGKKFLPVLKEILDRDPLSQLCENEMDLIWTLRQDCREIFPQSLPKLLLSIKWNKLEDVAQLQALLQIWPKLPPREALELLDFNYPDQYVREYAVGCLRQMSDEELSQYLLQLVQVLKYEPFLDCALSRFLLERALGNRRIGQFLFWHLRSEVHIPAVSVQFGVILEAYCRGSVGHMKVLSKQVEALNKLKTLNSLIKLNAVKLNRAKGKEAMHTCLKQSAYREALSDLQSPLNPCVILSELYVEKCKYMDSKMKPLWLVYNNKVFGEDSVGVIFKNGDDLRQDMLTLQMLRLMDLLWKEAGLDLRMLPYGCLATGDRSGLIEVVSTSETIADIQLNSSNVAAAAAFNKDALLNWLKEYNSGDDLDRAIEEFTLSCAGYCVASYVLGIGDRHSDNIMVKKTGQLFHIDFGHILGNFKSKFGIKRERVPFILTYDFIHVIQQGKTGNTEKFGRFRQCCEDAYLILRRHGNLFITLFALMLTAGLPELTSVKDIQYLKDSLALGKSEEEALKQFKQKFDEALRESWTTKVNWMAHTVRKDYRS
Sequence of PI3Kβ (P27986 whole entry partner): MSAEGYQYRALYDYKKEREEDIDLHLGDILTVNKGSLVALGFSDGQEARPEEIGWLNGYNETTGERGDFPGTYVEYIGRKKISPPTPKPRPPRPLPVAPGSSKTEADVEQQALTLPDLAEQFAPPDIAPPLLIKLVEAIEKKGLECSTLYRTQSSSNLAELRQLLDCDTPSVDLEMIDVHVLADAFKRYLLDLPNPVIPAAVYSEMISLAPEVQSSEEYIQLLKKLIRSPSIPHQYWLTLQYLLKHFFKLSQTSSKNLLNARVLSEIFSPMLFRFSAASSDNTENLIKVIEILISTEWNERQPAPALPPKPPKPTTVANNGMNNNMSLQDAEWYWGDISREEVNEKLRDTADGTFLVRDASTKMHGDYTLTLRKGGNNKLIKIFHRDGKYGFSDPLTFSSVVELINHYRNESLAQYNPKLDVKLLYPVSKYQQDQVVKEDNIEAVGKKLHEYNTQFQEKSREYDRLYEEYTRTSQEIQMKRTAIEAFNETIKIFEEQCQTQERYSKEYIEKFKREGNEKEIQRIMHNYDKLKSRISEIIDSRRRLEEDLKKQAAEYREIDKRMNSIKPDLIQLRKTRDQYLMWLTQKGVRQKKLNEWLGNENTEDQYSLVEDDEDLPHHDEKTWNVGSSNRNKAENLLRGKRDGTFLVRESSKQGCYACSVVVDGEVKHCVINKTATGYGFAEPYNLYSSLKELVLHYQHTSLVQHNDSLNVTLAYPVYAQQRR

[7] = target: Never-In-Mitosis Gene A (NIMA)-related kinase 2 (NEK2) (Homo sapiens, UniProt P51955); experiment: Kinase selectivity panel, NEK2; type: biochemical; conditions: NEK2, relevant activity observed
Sequence of Never-In-Mitosis Gene A (NIMA)-related kinase 2 (NEK2) (P51955 whole entry, species assumed): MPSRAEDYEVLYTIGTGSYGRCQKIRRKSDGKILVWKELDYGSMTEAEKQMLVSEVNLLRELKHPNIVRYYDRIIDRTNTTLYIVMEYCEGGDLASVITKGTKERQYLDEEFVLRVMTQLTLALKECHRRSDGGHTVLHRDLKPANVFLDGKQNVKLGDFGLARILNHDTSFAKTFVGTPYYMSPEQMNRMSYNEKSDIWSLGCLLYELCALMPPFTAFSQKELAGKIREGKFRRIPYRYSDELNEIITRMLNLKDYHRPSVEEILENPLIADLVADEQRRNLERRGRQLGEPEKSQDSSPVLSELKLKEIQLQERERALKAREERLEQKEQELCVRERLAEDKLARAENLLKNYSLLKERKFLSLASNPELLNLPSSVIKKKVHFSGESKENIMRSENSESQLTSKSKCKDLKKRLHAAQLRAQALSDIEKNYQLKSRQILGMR

[8] = tested on: OCCA cells; experiment: Cell cycle analysis (flow cytometry), OCCA panel; type: cell-based; conditions: 48 h
Procedure: Cells (5×10^5) were seeded in 60-mm dishes and treated with DS-7423 for 48 h. Floating and adherent cells were collected by trypsinization and washed twice with phosphate buffer saline (PBS). Cells were resuspended in cold 70% ethanol and maintained at 4°C overnight. After being washed twice with PBS, cells were incubated in RNase A (0.25 mg/mL) (Sigma) for 30 min at 37°C, followed by staining with propidium iodide (PI; 50 μg/mL) (Sigma) at 4°C for 30 min in the dark. Cells were then analyzed using flow cytometry (BD FACS Calibur HG, Franklin Lakes, NJ). Cell cycle distribution was analyzed using CELL Quest pro ver. 3.1. […]. All experiments were repeated three times.

[9] = tested on: p-MDM2, p-TP53 in OVMANA cells; experiment: Immunoblotting of p-MDM2 and p-TP53; type: cell-based
Excerpt: (§4) Antibodies to total Akt, phosphorylation of Akt (p-Akt) (Ser473, Thr308), p-GSK3beta (Ser9), total S6, p-S6 (Ser235/236, Ser 240/244), p-4EBP1 (Thr37/46), p-FOXO1 (Thr24), p-FOXO3a (Thr32), p-MDM2 (Ser 166), p-TP53 (Ser15), cleaved-PARP, and PARP (Cell Signaling Technology, Beverly, MA), beta-actin (Sigma-Aldrich, St. Louis, MO), TP53 (Santa Cruz, CA, USA) and p-TP53 (Ser46) (Calbiochem, Billerica, MA) were used for immunoblotting, as recommended by the manufacturers. Signals were detected using BioRAD western blotting systems (BioRAD, Hercules, CA) with the detection reagents ECL advance and ECL select (GE Healthcare, Piscataway, NJ).

[10] = tested on: OVISE cells; experiment: Proliferation (MTT/WST-8) assay; type: cell-based; conditions: siRNA to TP53, MTT assay
Procedure: as §3

[11] = tested on: nine OCCA cell lines; experiment: Proliferation (MTT/WST-8) assay, OCCA panel; type: cell-based; conditions: 156 nM, 72 h
Procedure: as §3

[12] = target: PI3Kδ (Homo sapiens, UniProt O00329); experiment: PI3Kδ inhibition; type: biochemical
Sequence of PI3Kδ (O00329 whole entry): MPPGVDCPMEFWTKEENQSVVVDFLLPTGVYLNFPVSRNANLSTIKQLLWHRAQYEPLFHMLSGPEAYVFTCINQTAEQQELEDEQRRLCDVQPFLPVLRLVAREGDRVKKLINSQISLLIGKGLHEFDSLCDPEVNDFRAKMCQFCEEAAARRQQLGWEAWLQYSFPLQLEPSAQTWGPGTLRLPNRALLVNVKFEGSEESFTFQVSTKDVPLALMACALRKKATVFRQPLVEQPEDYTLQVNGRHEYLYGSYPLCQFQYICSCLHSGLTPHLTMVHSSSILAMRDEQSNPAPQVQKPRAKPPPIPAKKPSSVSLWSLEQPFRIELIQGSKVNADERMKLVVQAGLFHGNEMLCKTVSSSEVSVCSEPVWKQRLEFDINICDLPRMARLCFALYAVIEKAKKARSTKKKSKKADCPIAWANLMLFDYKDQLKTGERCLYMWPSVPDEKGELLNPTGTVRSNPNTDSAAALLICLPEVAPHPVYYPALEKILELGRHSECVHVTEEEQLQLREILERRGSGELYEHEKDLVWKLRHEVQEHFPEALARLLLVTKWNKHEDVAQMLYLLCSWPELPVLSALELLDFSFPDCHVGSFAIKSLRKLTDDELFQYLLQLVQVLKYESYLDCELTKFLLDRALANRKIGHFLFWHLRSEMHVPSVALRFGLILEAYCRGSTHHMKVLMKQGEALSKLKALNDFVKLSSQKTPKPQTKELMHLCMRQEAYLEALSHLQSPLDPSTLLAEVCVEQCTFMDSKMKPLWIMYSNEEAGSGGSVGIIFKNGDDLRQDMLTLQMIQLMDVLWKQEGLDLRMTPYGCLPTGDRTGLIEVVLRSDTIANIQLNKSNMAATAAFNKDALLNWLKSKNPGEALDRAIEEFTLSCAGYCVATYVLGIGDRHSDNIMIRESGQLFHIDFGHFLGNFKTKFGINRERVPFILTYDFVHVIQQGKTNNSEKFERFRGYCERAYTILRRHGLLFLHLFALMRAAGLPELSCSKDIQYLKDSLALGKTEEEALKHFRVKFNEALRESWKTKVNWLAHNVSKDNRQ
Sequence of PI3Kδ (P27986 whole entry partner): as the sequence (P27986 whole entry partner) above

[13] = target: PI3Kα (Homo sapiens, UniProt P42336); experiment: PI3Kα inhibition; type: biochemical
[14] = target: PI3Kγ (Homo sapiens, UniProt P48736); experiment: PI3Kγ inhibition; type: biochemical
[15] = target: 227 kinases; experiment: Kinase selectivity panel; type: biochemical; conditions: 227 kinases tested, except MLK1 and NEK2
[16] = tested on: cleavage of PARP in OVMANA cells; experiment: Cleaved PARP immunoblotting; type: cell-based
Excerpt: as §4

[17] = tested on: ES-2 xenografts; experiment: Tumor xenograft in nude mice; type: in vivo
Excerpt: as §1
Supplementary file pone.0087220.s002.pptx: Figure S2 In vivo effect of DS-7423 in nude mice. […] The levels of p-Akt (Thr-308) and p-S6 (Ser-240/244) were assessed. […]

[18] = tested on: TP53-regulated genes in OVMANA and OVISE cells; experiment: Semi-quantitative RT-PCR of TP53 target genes; type: cell-based
Excerpt: Total RNAs of these cells were extracted with the RNeasy Mini Kit according to the manufacturer's instructions (QIAGEN, Valencia, CA). cDNAs were synthesized from total RNAs by using the Super Script III First-strand Synthesis SuperMix (Invitrogen, Carlsbad, CA). The exponential phase of the RT-PCR occurred between 15–30 cycles, and these cycles were monitored to allow semi-quantitative comparisons among the cDNAs developed from identical reactions. The primers and conditions for the amplification of p53AIP1, p21, and GAPDH sequences were described previously. The PCR primers for PUMA were 5′-[…]-3′ (forward) and 5′-[…] CTC-3′ (reverse). The primers for p53R2, TIGAR, GLS2, GADD45, 14-3-3 sigma and PAI-1 were described previously [30]–[35]. Each PCR regimen involved a 2-min initial denaturation step (94°C), which was followed by 15–30 cycles at 94°C for 30 s, then at 55°C for 30 s, and finally, at 72°C for 30 s using a Thermal Cycler Gene Atlas instrument (ASTEC, Fukuoka, Japan).

[19] = tested on: phosphorylation of AKT, S6, FOXO1/3a in OCCA cells; experiment: Immunoblotting of PI3K/mTOR signaling in OCCA cells; type: cell-based
Excerpt: Signals were detected using BioRAD western blotting systems (BioRAD, Hercules, CA) with the detection reagents ECL advance and ECL select (GE Healthcare, Piscataway, NJ).

[20] = target: Mixed Lineage Kinase 1 (MLK1) (Homo sapiens, UniProt P80192); experiment: Kinase selectivity panel, MLK1; type: biochemical; conditions: MLK1, relevant activity observed
Sequence of Mixed Lineage Kinase 1 (MLK1) (P80192 whole entry, species assumed): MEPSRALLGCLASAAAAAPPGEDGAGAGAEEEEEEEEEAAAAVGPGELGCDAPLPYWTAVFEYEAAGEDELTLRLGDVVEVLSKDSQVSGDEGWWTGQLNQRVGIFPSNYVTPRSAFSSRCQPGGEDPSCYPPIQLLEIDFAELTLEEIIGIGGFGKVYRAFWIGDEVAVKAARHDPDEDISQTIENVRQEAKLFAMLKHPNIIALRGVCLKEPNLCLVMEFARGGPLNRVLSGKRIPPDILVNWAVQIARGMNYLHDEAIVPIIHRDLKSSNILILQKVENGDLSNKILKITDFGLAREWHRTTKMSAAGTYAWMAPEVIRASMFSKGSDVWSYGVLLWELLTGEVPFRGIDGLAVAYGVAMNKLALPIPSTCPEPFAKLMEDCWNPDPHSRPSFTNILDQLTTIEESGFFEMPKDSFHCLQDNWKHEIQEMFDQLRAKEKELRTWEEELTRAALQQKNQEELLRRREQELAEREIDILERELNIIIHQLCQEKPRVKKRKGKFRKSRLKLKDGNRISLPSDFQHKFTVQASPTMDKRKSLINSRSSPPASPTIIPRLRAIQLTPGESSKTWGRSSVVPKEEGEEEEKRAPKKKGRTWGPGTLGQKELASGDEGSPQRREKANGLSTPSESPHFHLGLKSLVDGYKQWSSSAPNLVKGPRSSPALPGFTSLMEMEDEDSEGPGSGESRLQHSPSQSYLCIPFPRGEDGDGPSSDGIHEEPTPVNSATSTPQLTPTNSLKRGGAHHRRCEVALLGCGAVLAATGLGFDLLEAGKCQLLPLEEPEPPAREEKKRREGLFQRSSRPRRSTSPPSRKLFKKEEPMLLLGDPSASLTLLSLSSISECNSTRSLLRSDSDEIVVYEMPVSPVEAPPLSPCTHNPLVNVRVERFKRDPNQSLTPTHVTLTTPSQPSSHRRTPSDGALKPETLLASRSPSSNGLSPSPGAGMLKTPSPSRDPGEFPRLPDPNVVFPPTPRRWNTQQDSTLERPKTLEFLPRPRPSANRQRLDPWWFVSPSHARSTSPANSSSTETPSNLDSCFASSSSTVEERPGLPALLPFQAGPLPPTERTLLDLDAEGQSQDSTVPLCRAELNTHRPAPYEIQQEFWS

[21] = tested on: OCCA cell lines; experiment: Apoptosis by annexin-V FITC/PI staining, OCCA panel; type: cell-based
Procedure: as §2

[22] = tested on: OVMANA cells; experiment: Proliferation (MTT/WST-8) assay; type: cell-based; conditions: 72 h
Procedure: as §3

[23] = tested on: RMG-I cells; experiment: Proliferation (MTT/WST-8) assay; type: cell-based; conditions: Homo sapiens, RMG-1, 72 h
Procedure: as §3

[24] = tested on: JHOC-7 cells; experiment: Proliferation (MTT/WST-8) assay; type: cell-based; conditions: JHOC-7, 72 h
Procedure: as §3

[25] = tested on: SKOV3 cells; experiment: Proliferation (MTT/WST-8) assay; type: cell-based; conditions: Homo sapiens, SK-OV-3; SKOV3, 72 h
Procedure: as §3

[26] = tested on: OVTOKO cells; experiment: Proliferation (MTT/WST-8) assay; type: cell-based; conditions: 72 h
Procedure: as §3

[27] = tested on: recurrent OCCA; set-up: method as in PMID 21243393; conditions: six cases, weekly administration, recurrent OCCA patients ref 39; cited from earlier work

CC(=O)N1CCN(c2nc3c(N4CCOCC4)nc(-c4cnc(N)nc4)nc3n2CC(F)(F)F)C[C@H]1C [DS-7423]
adverse effects, including body weight loss of more than 10% ([1]; TOV-21G xenograft mice, oral daily 1.5, 3 or 6 mg/kg): No significant adverse effects | levels of p-AKT (Thr308) and p-S6 (Ser240/244) in xenografts ([1]; TOV-21G xenografts, 2 and 6 h after last administration): suppressed | tumor growth of xenografts ([1]; TOV-21G, oral daily 1.5, 3 or 6 mg/kg, dose-dependent): significantly suppressed | adverse effects, including body weight loss of more than 10% ([2]; RMG-I xenograft mice, oral daily 1.5, 3 or 6 mg/kg): No significant adverse effects | levels of p-AKT (Thr308) and p-S6 (Ser240/244) in xenografts ([2]; RMG-I xenografts, 2 and 6 h after last administration): suppressed | tumor growth of xenografts ([2]; RMG-I, oral daily 1.5, 3 or 6 mg/kg, dose-dependent): significantly suppressed | percentage of apoptotic cells compared with rapamycin ([3]; OVISE cells): significantly higher | apoptotic cell death after knockdown of TP53 ([3]; OVISE, TP53 siRNA, 156 or 2,500 nM, 48 h): rescued | IC50 [4]: > 0.1 µM | IC50 [5]: 0.0349 µM | IC50 [6]: 1.14 µM | IC50 [7]: < 0.2 µM | size of the S-phase population ([8]; OCCA cells, change weak in ES-2): decreased | sizes of sub-G1 populations ([8]; six of the nine cell lines): increased in a dose-dependent manner | doses clearly inducing p-TP53 (Ser46), not p-TP53 (Ser15) ([9]; OVMANA cells): 156–2,500 nM | level of p-MDM2 ([9]; dose-dependent): reduced | anti-proliferative effect when combined with knockdown of TP53 [10]: significantly reduced | inhibition of cell growth [11]: 70%–97% | IC50 [12]: 0.262 µM | IC50 [13]: 0.0156 µM | IC50 [14]: 0.249 µM | Relevant activity (IC50 <200 nM) [15]: not observed | concentration at which induction of cleaved-PARP was observed ([16]; 4 h, dose-dependent up to 2,500 nM): 39 nM | time to cleavage of PARP ([16]; OVMANA cells without mutations in TP53, 156 nM): ≤ 2 h | anti-tumor effect compared with TOV-21G and RMG-I xenografts [17]: weaker | estimated tumor volumes compared to the control ([17]; 6 mg/kg daily, totally 8 times): smaller | expression of p21 ([18]; 39, 156, and 2,500 nM, 24 h): did not induce | expression of GADD45 ([18]; OVISE cells): significantly induced | doses inducing expression of p53AIP1 and PUMA ([18]; OVMANA and OVISE cells, 24 h): ≥ 39 nM | expression of TIGAR ([18]; OVMANA cells): decreased | doses suppressing phosphorylation of AKT (Thr308 and Ser473) and S6 (Ser235/236 and Ser240/244) ([19]; these doses and higher, OCCA cells): 39 to 156 nM | IC50 [20]: < 0.2 µM | apoptosis (annexin-V FITC/PI) ([21]; 156 nM, 48 h, five of the six cell lines that lacked mutations in TP53): 4–12% | apoptosis (annexin-V FITC/PI) ([21]; 2,500 nM, 48 h, five cell lines without TP53 mutations): 10–16% | ratio of apoptotic cells ([21]; even at high concentrations): less than 20% | apoptosis (annexin-V FITC/PI) ([21]; three cell lines with TP53 mutations, any of the doses tested): ≤ 5%

CO[C@H]1C[C@@H]2CC[C@@H](C)[C@@](O)(O2)C(=O)C(=O)N2CCCC[C@H]2C(=O)O[C@H]([C@H](C)C[C@@H]2CC[C@@H](O)[C@H](OC)C2)CC(=O)[C@H](C)/C=C(\C)[C@@H](O)[C@@H](OC)C(=O)[C@H](C)C[C@H](C)/C=C/C=C/C=C/1C [rapamycin]
IC50 [22]: > 2.56 µM | IC50 [23]: > 2.56 µM | IC50 [24]: > 2.56 µM | IC50 [25]: > 2.56 µM | IC50 [26]: > 2.56 µM | levels of p-FOXO3a and p-FOXO1 ([19]; 2,500 nM, OVISE): increased | suppression of p-Akt ([19]; any dose (0 to 2,500 nM), OVISE): did not suppress | apoptotic cell death ([21]; OCCA cells, even at 2,500 nM): ≤ 5%

CO[C@H]1C[C@@H]2CC[C@@H](C)[C@@](O)(O2)C(=O)C(=O)N2CCCC[C@H]2C(=O)O[C@H]([C@H](C)C[C@@H]2CC[C@@H](OC(=O)C(C)(CO)CO)[C@H](OC)C2)CC(=O)[C@H](C)/C=C(\C)[C@@H](O)[C@@H](OC)C(=O)[C@H](C)C[C@H](C)/C=C/C=C/C=C/1C [temsirolimus]
clinical response [27]: partial response in one patient and stable disease in another patient
